The results in this text go back to ChEMBL document CHEMBL3400014, “Cytotoxic acyl amides from the soil fungus Gymnascella dankaliensis” (Bioorg Med Chem, 2015).

Each structure is given as a SMILES string. Activity calls are given as the source filed them. The calls are words filed in the database; no cut-off is given here.

This assay deals with L5178Y. The experiment in a line: Cytotoxicity against mouse L5178Y cells by MTT assay. Format: functional, cell-based.
Take `CC(/C=C/C(=O)NC(Cc1ccc(O)cc1)C(=O)O)=C\[C@H](C)CC(=O)O` (mixture of isomers): the outcome was inactive.
Still for that read-out and setting: the same measure for `CC(/C=C/C(=O)NC(Cc1ccc(O)cc1)C(=O)O)=C\[C@H](C)CCCCCCO` (mixture of isomers): “inactive”.
For `CCCCCC[C@@H](C)/C=C(C)/C=C/C(=O)N[C@H]1C[C@]2(OC1O)[C@@H]1O[C@@H]1C(=O)[C@@H]1O[C@@H]12` (some centres not stated), the IC50 (as a rule, the concentration needed to halve the response being measured) amounted to 580 nM.
Consider `CC(/C=C/C(=O)NC(CO)Cc1ccc(O)cc1)=C\C(C)CC(=O)O` (mixture of isomers), for which the result was inactive.
As for `CCCCCC[C@@H](C)/C=C(C)/C=C/C(=O)N[C@H]1CC2(C=C(Cl)C(=O)C(Cl)=C2)OC1O` (some centres not stated), the IC50 amounted to 640 nM. This counts as sub-micromolar.
On the same count and under the same terms, the same measure for `CCCCCC[C@@H](C)/C=C(C)/C=C/C(=O)N[C@H]1C[C@]2(O[C@H]1OC)[C@@H]1O[C@@H]1C(=O)[C@@H]1O[C@@H]12`: 440 nM.
As to `CC(/C=C/C(N)=O)=C\[C@H](C)CC(=O)O`, the result was inactive.
For `CCCCCC[C@@H](C)/C=C(C)/C=C/C(=O)N[C@H]1C[C@]2(OC1O)[C@@H]1O[C@@H]1C(O)[C@@H]1O[C@@H]12` (some centres not stated), the result was inactive.
For the compound `CCCCCC[C@@H](C)/C=C(C)/C=C/C(N)=O`, the outcome was inactive.
On the same count and under the same terms, to `CC(/C=C/C(=O)NC(Cc1ccc(O)cc1)C(=O)O)=C\[C@H](C)CCCCCC(=O)O` (mixture of isomers) belongs “inactive”.
In the case of `CCCCCC[C@@H](C)/C=C(C)/C=C/C(=O)N[C@H]1C[C@]2(C=C(Cl)C(=O)[C@H](Cl)[C@H]2O)O[C@H]1OC`, the IC50 turned out to be 5800 nM.
As for `CCCCCC[C@@H](C)/C=C(C)/C=C/C(=O)N[C@H]1C[C@]2(OC1O)[C@@H]1O[C@@H]1C(O)(CC(C)=O)[C@@H]1O[C@@H]12` (some centres not stated), the outcome was inactive.
